# In US8637664B2, “Alkyl 4- [4- (5-oxo-2,3,5, 11a-tetrahydo-5H-pyrrolo [2, 1-c] [1,4] benzodiazepine-8-yloxy)-butyrylamino]-1H-pyrrole-2-carboxylate derivatives and related compounds for the treatment of a proliferative disease” (Spirogen SARL, priority 2005, dated 2014):
# Like-named read-outs stand apart in the source and are kept apart here.
# How the values were obtained:
# [1] = test system: 262 bp DNA fragment (MS2F or MS2R) of MS2 plasmid; test: DNase I footprinting on MS2 DNA fragment; assay type: binding
# Protocol: The sequence selectivity of the six PBD-pyrrole conjugates (21, 23, 25, 27, 29) was evaluated by standard DNA footprinting on a fragment of MS2 as follows, in accordance with the technique described in Martin, C., et al., (Martin, C., et al., Biochemistry, 44(11), 4135-4147 (2005))
# Forward (5′-[…]-3′) or reverse (5′-[…]-3′) primer was 5′-end labelled with ^32P by T4 polynucleotide kinase. Labelling mixture contained primer (5 pmol; Sigma-Genosys), 10× kinase buffer (1 μl; Promega), (γ-^32P)-ATP (2μ of 10 μCi/μl, 6000 Ci/mmol; Perkin Elmer Life Sciences), and T4 polynucleotide kinase (10 U; Promega) in a 10 μl final volume. Labelling mix was incubated at 37° C. for 30 minutes followed by inactivation of the kinase at 70° C. for 10 minutes. A 262 bp DNA fragment (MS2F or MS2R) was amplified from the MS2 plasmid using PCR with either labelled forward or reverse primer and the unlabelled primer as required. Reactions were comprised of labelled primer mix (10 μl), 10×PCR buffer (5 μl; Sigma), dNTPs (5 μl; 2.5 mM each of A, C, G and T, Amersham Pharmacia), unlabelled primer as required ([…]), MS2 plasmid template DNA (10 ng) and Taq DNA polymerase (5 U; Sigma) in a 50 μl final volume. Radiolabelled 262-mer was purified by non-denaturing polyacrylamide gel electrophoresis, elution, filtration and EtOH precipitation and was resuspended in a solution of Tris-HCl (10 mM) pH 7.4/NaCl (10 mM) to yield an activity of 200 counts per second per 5 μl when held up, in a pipette tip, to a capped Morgan series 900 mini-monitor.
# For DNase I footprinting radiolabelled 262-mer (2 μl) was incubated overnight (16-18 h) with drug solution (388 μl) or in an aqueous buffer [HEPES (20 mM) pH 7.9, NaCl (50 mM), MgCl2 (1 mM), DTT (5 mM), 10% glycerol] in control reactions. Enzymatic cleavage was initiated by addition of DNase I solution (10 μl of 0.05 U/ml; Sigma) in aqueous NaCl (200 mM), MgCl2 (20 mM) and MnCl2 (20 mM) and halted with stop solution [40 μl of NaCl (2.25 M), EDTA (150 mM) pH 8.0, 0.57 μg/μl glycogen (0.57 μg/μl; Roche), poly(dl-dC).poly(dl-dC) DNA (19.3 ng/μl; Amersham Pharmacia)]. From this mixture, digested DNA fragments were prepared for electrophoresis following the protocol of Trauger & Dervan, and were loaded on to a preheated 8% denaturing polyacrylamide gel. Electrophoresis in 1×TBE buffer was allowed to proceed for 100 min at 70 W (1600-2000 V). The gel was the fixed in acetic acid (10% v/v) and methanol (10% v/v) for 15 minutes followed by being blotted onto Whatman 3 mM paper and vacuum-dried at 80° C. for 45 minutes.
# Dried gels were stored at room temperature in phosphor storage screens (Molecular Dynamics) for a minimum period of 12 h. Data were collected from exposed screens using a Molecular Dynamics 425E Phosphorlmager and transferred to ImageQuant v1.2 software (Molecular Dynamics) for analysis. Data were expressed as the differential cleavage between control and sample lanes. Peaks were integrated and differential cleavage calculated as ln(fd)−ln(fc); (fd is the fractional cleavage at any particular bond in the presence of drug and fc is the fractional cleavage of the same bond in the control). Maxam-Gilbert G+A marker lanes were prepared in the usual fashion.
# The vast majority of footprint sites are common features in the binding profiles of all six conjugates, with only a small number of sites being footprinted by a subset of the family. Even more unexpectedly, no site is footprinted by only one molecule (in fact, the fewest number of conjugates that bind at any single site is four). The differential cleavage plot provides footprinting profiles at a supramaximal concentration colour-coded for each conjugate which illustrates a striking degree of overlap. Although there is no conspicuous change in footprinting patterns as the number of pyrroles units in each conjugate increases, there are changes in two other features, namely, the apparent binding affinity and the width of the footprinted site. […]
# [2] = test system: K562 human chronic myeloid leukaemia cells; test: In vitro cytotoxicity, MTT assay; assay type: cell-based; settings: K562, 1 hour drug exposure, MTT after 4 days
# Protocol: K562 human chronic myeloid leukaemia cells were maintained in RPM1 1640 medium supplemented with 10% fetal calf serum and 2 mM glutamine at 37° C. in a humidified atmosphere containing 5% CO2 and were incubated with a specified dose of drug for 1 hour at 37° C. in the dark. The incubation was terminated by centrifugation (5 min, 300 g) and the cells were washed once with drug-free medium. Following the appropriate drug treatment, the cells were transferred to 96-well microtiter plates (10^4 cells per well, 8 wells per sample). Plates were then kept in the dark at 37° C. in a humidified atmosphere containing 5% CO2. The assay is based on the ability of viable cells to reduce a yellow soluble tetrazolium salt, 3-(4,5-dimethylthiazol-2-yl)-2,5-diphenyl-2H-tetrazolium bromide (MTT, Aldrich-Sigma), to an insoluble purple formazan precipitate. Following incubation of the plates for 4 days (to allow control cells to increase in number by approximately 10 fold), 20 μL of MTT solution (5 mg/mL in phosphate-buffered saline) was added to each well and the plates further incubated for 5 hours. The plates were then centrifuged for 5 minutes at 300 g and the bulk of the medium pipetted from the cell pellet leaving 10-20 μL per well. DMSO (200 μL) was added to each well and the samples agitated to ensure complete mixing. The optical density was then read at a wavelength of 550 nm on a Titertek Multiscan ELISA plate reader, and a dose-response curve was constructed.
SMILES,apparent binding affinity of C11 relative to 25 ([1]; C11 approximately 3 μM versus 25 30-100 nM),"Footprint Position D ([1]; MS2 DNA fragment, position D)","Footprint Position G ([1]; MS2 DNA fragment, position G)","Footprint Position K ([1]; MS2 DNA fragment, position K)","Footprint Position L ([1]; MS2 DNA fragment, position L)","Footprint Position M ([1]; MS2 DNA fragment, position M)","IC50 ([1]; estimated by eye from footprint gel, read-out: DNase IC50 (apparent binding affinity)) [nM]",IC50 [2] [nM],"IC50 ([1]; read-out: DNase IC50 (apparent binding affinity; 50% inhibition of DNase I-mediated cleavage), estimated by eye, site 5′-62CAATACACA70-3′) [nM]"
"COC(=O)c1cc(NC(=O)c2cc(NC(=O)c3cc(NC(=O)CCOc4cc5c(cc4OC)C(=O)N4CCC[C@H]4C=N5)cn3C)cn2C)cn1C [Compound C11, (11aS) Methyl 4-{[4-({4-[4-(7-Methoxy-5-oxo-2,3,5,11a-tetrahydro-5H-pyrrolo[2,1-c][1,4]benzodiazepine-8-yloxy)-propionylamino]-1-methyl-1H-pyrrole-2-carbonyl]-amino)-1-methyl-1H-pyrrole-2-carbonyl]-amino}-1-methyl-1H-pyrrole-2-carboxylate]",30-100 fold,lack of footprints,lack of footprints,much weaker binding,much weaker binding,lack of footprints,~3000,346,–
"COC(=O)c1cc(NC(=O)c2cc(NC(=O)CCCOc3cc4c(cc3OC)C(=O)N3CCC[C@H]3C=N4)cn2C)cn1C [Compound 23, (11aS) Methyl 4-({4-[4-(7-Methoxy-6-oxo-2,3,5,11a-tetrahydro-5H-pyrrolo[2,1-c][1,4]benzodiazepine-8-yloxy)-butyrylamino]-1-methyl-1H-pyrrole-2-carbonyl}-amino)-1-methyl-1H-pyrrole-2-carboxylate]",–,–,–,–,–,–,–,3.6,100 to 300
